Reference: the supplement of paper PMC10307832

Assays:
Assay in all cases: relative viability (nuclei count vs DMSO), 5 days (fraction); higher = more cells survive
NVP-TAE684 + Luminespib = compound: COc1cc(N2CCC(N3CCN(C)CC3)CC2)ccc1Nc1ncc(Cl)c(Nc2ccccc2S(=O)(=O)C(C)C)n1 [NVP-TAE684] + CCNC(=O)c1noc(-c2cc(C(C)C)c(O)cc2O)c1-c1ccc(CN2CCOCC2)cc1 [Luminespib] (partner 0.01 µM)
In short: (§1)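 After 5 days of treatment, lung cancer cells in 1536-well plates were fixed and stained in a single step (final 0.05% Triton X-100, 1% formaldehyde, 1 ug/ml Hoechst) and their nuclei counted on 4× images. Treatment had been applied by pin tool the day after seeding as one drug alone or as a fixed anchor-drug dose with five library-drug doses (not always all listed) in √10 steps. Relative viability is the nuclei count of treated wells divided by that of vehicle wells, and values are medians of duplicate plates.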

Vandetanib + Palbociclib = compound: COc1cc2/c(=N/c3ccc(Br)cc3F)nc[nH]c2cc1OCC1CCN(C)CC1 [Vandetanib] + CC(=O)c1c(C)c2cnc(Nc3ccc(N4CCNCC4)cn3)nc2n(C2CCCC2)c1=O [Palbociclib] (partner 0.5 µM)
In short: as §1

NVP-TAE684 + Alpelisib = compound: COc1cc(N2CCC(N3CCN(C)CC3)CC2)ccc1Nc1ncc(Cl)c(Nc2ccccc2S(=O)(=O)C(C)C)n1 [NVP-TAE684] + Cc1nc(NC(=O)N2CCC[C@H]2C(N)=O)sc1-c1ccnc(C(C)(C)C(F)(F)F)c1 [Alpelisib] (partner 2 µM)
In short: as §1

Vandetanib + Pictilisib = compound: COc1cc2/c(=N/c3ccc(Br)cc3F)nc[nH]c2cc1OCC1CCN(C)CC1 [Vandetanib] + CS(=O)(=O)N1CCN(Cc2cc3nc(-c4cccc5[nH]ncc45)nc(N4CCOCC4)c3s2)CC1 [Pictilisib] (partner 1 µM)
In short: as §1

| Cell Line | relative viability (NVP-TAE684 + Luminespib; first compound 0.2 µM) | relative viability (NVP-TAE684 + Luminespib; first compound 0.6325 µM) | relative viability (NVP-TAE684 + Luminespib; first compound 2 µM) | relative viability (Vandetanib + Palbociclib; first compound 0.02 µM) | relative viability (Vandetanib + Palbociclib; first compound 0.06325 µM) | relative viability (Vandetanib + Palbociclib; first compound 0.2 µM) | relative viability (Vandetanib + Palbociclib; first compound 0.6325 µM) | relative viability (Vandetanib + Palbociclib; first compound 2 µM) | relative viability (NVP-TAE684 + Alpelisib; first compound 0.2 µM) | relative viability (NVP-TAE684 + Alpelisib; first compound 0.6325 µM) | relative viability (NVP-TAE684 + Alpelisib; first compound 2 µM) | relative viability (Vandetanib + Pictilisib; first compound 0.02 µM) | relative viability (Vandetanib + Pictilisib; first compound 0.06325 µM) | relative viability (Vandetanib + Pictilisib; first compound 0.2 µM) | relative viability (Vandetanib + Pictilisib; first compound 0.6325 µM) | relative viability (Vandetanib + Pictilisib; first compound 2 µM) |
| --- | --- | --- | --- | --- | --- | --- | --- | --- | --- | --- | --- | --- | --- | --- | --- | --- |
| NCI-H522 | 0.925 | 1.28 | 1.02 | 0.89 | 0.909 | 1.14 | 0.961 | 0.986 | – | – | – | – | – | – | – | – |
| RERF-LC-KJ | 1.65 | 1.21 | 0.587 | 1.05 | 1.03 | 0.673 | 0.993 | 0.869 | 0.789 | 0.743 | 0.843 | 0.583 | 0.543 | 0.577 | 0.448 | 0.394 |
| A-427 | 0.978 | 0.79 | 0.516 | 0.508 | 0.497 | 0.485 | 0.531 | 0.503 | 1.12 | – | 0.899 | 0.676 | 0.626 | 0.762 | 0.674 | 0.777 |
| EKVX | 0.877 | 0.913 | 0.754 | 0.415 | 0.396 | 0.345 | 0.291 | 0.176 | 0.936 | 0.781 | 0.63 | 0.404 | 0.396 | 0.404 | 0.363 | 0.213 |
| NCI-H460 | 0.0418 | 0.0325 | 0.0305 | 0.147 | 0.157 | 0.189 | 0.148 | 0.166 | 0.607 | 0.412 | 0.113 | 0.351 | 0.359 | 0.349 | 0.371 | 0.331 |
| HARA | 0.991 | 0.517 | 0.389 | 0.261 | 0.224 | 0.225 | 0.293 | 0.221 | 0.884 | 0.719 | 0.346 | 0.385 | 0.248 | 0.337 | 0.369 | 0.392 |
| NCI-H1944 | 0.667 | 0.741 | 0.58 | 0.323 | 0.343 | 0.322 | 0.276 | 0.303 | 0.786 | 0.797 | 0.691 | 0.328 | 0.345 | 0.339 | 0.345 | 0.334 |
| BEN | 0.444 | 0.172 | 0.34 | 0.458 | 0.46 | 0.443 | 0.479 | 0.448 | – | 0.955 | 1.02 | 0.576 | 0.49 | 0.585 | 0.646 | 0.538 |
| PC-14 | 0.157 | – | 0.144 | 0.536 | 0.436 | 0.0488 | 0.117 | 0.0605 | 0.728 | 1.05 | 0.874 | 0.676 | 0.594 | 0.35 | 0.0812 | 0.0658 |
| NCI-H322M | 0.779 | 0.751 | 0.432 | 0.484 | 0.457 | 0.494 | 0.446 | 0.414 | 0.638 | 0.771 | 0.818 | 0.397 | 0.517 | 0.498 | 0.459 | 0.351 |
| NCI-H1651 | 1.24 | – | 0.693 | 0.484 | 0.501 | 0.515 | 0.515 | 0.446 | – | 1.02 | 0.994 | 0.621 | 0.519 | 0.478 | 0.528 | 0.374 |
| LCLC-97TM1 | 0.706 | – | 0.128 | 0.188 | 0.21 | 0.224 | 0.209 | 0.254 | 0.194 | 0.233 | 0.127 | 0.282 | 0.2 | 0.206 | 0.171 | 0.188 |
| NCI-H727 | 0.24 | 0.382 | 0.216 | 0.622 | 0.692 | 0.679 | 0.578 | 0.56 | 0.591 | 0.409 | 0.275 | 0.33 | 0.272 | 0.341 | 0.325 | 0.309 |
| NCI-H1623 | 0.531 | 0.54 | 0.322 | – | – | – | – | – | – | – | – | – | – | – | – | – |
| NCI-H1666 | 0.945 | 0.975 | 0.843 | 0.669 | 0.605 | 0.62 | 0.621 | 0.63 | – | 0.837 | 0.524 | 0.343 | 0.446 | 0.498 | 0.451 | 0.322 |
| IA-LM | – | – | – | – | – | – | – | – | 0.588 | 0.55 | 0.431 | 0.349 | – | 0.345 | 0.405 | 0.331 |
| NCI-H1792 | 0.396 | 0.411 | 0.359 | 0.639 | 0.626 | 0.636 | 0.634 | 0.501 | 0.647 | 0.718 | 0.684 | 0.273 | 0.288 | 0.303 | 0.318 | 0.235 |
| NCI-H1299 | – | – | – | – | – | – | – | – | 0.974 | 1.1 | 0.992 | 0.788 | 0.677 | 0.906 | 0.674 | 0.604 |
| HCC-366 | – | – | – | 0.423 | 0.41 | 0.453 | 0.394 | 0.351 | 0.758 | 0.342 | 0.0918 | 0.146 | 0.141 | 0.202 | 0.112 | 0.112 |
